# Experimental data published in ChEMBL document CHEMBL1126419 (Bioorg Med Chem Lett, 1992).
# Target: cAMP-dependent protein kinase (PKA) (Homo sapiens, UniProt P22694+P17612+P22612)
# Assay: Inhibition of protein kinase A
# Type: protein assay
row,SMILES,IC50
1,O=C1NC(O)c2c1c1c3ccccc3[nH]c1c1[nH]c3ccccc3c21 (centres undefined),34 µM
2,O=C1NC(=O)c2c1c1c3cccc(Cl)c3[nH]c1c1[nH]c3c(Cl)cccc3c21,> 100 µM
3,O=C1NC(=O)c2c1c1c3ccccc3[nH]c1c1[nH]c3ccccc3c21 [STAUROSPORINE AGLYCON],60 µM
4,O=C1NCc2c1c1c3ccccc3[nH]c1c1[nH]c3ccccc3c21 [STAUROSPORINONE],25.7 µM
